# From ChEMBL document CHEMBL4219110, “Structure optimization and preliminary bioactivity evaluation of N-hydroxybenzamide-based HDAC inhibitors with Y-shaped cap” (Bioorg Med Chem, 2018)
# What was measured:
# Histone deacetylase = test: Inhibition of HDAC in human HeLa cell nuclear extract using Boc-Lys (acetyl)-AMC as substrate preincubated for 5 mins followed by substrate addition measured after 30 mins by fluorescence assay; format: protein assay
# U-937 = test: Antiproliferative activity against human U937 cells after 48 hrs by MTT assay; format: functional, cell-based; settings: U-937, 48 h
# Jurkat = test: Antiproliferative activity against human Jurkat cells after 48 hrs by MTT assay; format: functional, cell-based
# [1] = Antiproliferative activity against human SK-N-BE(2) cells after 48 hrs by MTT assay; format: functional, cell-based; settings: SKNBE2, 48 h
# MOLT-4 = test: Antiproliferative activity against human MOLT4 cells after 48 hrs by MTT assay; format: functional, cell-based; settings: MOLT-4, 48 h
# HEL = test: cells; settings: Homo sapiens, 48 h
# Description: Antiproliferative activity against human HEL cells after 48 hrs by MTT assay
# HeLa = test: cells; settings: Homo sapiens, 48 h
# Histone deacetylase 11 = biological target: T1, Histone deacetylase 11 (Homo sapiens, UniProt Q96DB2); test: Inhibition of HDAC11 (unknown origin) using Ac-Leu-GlyLys(Ac)-AMC as substrate preincubated for 5 mins followed by substrate addition measured after 30 mins by fluorescence assay
# T1 sequence (Q96DB2 whole entry): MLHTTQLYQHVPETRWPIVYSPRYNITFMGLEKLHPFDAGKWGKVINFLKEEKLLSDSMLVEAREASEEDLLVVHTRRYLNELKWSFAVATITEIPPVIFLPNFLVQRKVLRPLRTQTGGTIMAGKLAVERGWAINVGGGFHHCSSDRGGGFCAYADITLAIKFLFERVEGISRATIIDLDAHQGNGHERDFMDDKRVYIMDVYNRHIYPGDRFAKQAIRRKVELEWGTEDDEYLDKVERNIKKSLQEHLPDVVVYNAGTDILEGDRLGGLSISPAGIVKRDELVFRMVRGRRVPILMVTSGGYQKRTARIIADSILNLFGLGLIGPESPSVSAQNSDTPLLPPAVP
# [2] = biological target: T2, Protein deacetylase HDAC6 (Homo sapiens, UniProt Q9UBN7); test: Inhibition of HDAC6 (unknown origin) using Ac-Leu-GlyLys(Ac)-AMC as substrate preincubated for 5 mins followed by substrate addition measured after 30 mins by fluorescence assay
# T2 sequence (Q9UBN7 whole entry): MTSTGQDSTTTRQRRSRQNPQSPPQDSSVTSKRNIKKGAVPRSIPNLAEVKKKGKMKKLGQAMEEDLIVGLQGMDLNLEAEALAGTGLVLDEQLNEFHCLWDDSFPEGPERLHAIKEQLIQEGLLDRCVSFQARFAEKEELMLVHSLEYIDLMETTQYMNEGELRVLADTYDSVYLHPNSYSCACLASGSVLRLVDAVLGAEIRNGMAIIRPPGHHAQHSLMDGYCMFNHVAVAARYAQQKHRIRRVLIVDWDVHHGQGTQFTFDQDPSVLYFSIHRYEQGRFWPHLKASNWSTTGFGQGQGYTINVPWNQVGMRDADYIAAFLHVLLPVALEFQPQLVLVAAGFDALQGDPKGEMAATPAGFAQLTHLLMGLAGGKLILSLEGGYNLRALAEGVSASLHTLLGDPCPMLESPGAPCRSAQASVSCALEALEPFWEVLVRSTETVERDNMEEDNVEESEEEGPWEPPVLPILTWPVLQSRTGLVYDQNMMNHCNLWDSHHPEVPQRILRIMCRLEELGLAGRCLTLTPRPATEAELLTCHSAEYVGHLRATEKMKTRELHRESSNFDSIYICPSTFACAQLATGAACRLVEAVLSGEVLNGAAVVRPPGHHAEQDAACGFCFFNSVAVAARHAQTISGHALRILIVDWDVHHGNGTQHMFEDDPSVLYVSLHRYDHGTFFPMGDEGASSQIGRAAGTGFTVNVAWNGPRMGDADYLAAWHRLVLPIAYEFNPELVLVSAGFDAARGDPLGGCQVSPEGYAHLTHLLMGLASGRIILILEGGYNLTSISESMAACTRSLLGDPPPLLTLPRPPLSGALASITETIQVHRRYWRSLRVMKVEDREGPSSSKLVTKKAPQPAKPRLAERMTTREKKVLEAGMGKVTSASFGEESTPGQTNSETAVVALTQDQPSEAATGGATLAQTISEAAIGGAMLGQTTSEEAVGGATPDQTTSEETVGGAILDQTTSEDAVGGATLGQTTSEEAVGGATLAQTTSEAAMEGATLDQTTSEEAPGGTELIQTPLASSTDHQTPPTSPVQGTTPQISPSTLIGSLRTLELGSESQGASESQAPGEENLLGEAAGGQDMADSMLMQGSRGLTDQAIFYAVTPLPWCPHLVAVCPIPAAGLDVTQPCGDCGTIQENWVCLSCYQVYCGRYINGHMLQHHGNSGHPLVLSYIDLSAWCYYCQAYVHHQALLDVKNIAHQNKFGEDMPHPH
# Histone deacetylase 1 = Histone deacetylase 1 (Homo sapiens, UniProt Q13547); test: Inhibition of HDAC1 (unknown origin) using Ac-Leu-GlyLys(Ac)-AMC as substrate preincubated for 5 mins followed by substrate addition measured after 30 mins by fluorescence assay
# Histone deacetylase 8 = biological target: T3, Histone deacetylase 8 (Homo sapiens, UniProt Q9BY41); test: Inhibition of HDAC8 (unknown origin) using Ac-Leu-GlyLys(Ac)-AMC as substrate preincubated for 5 mins followed by substrate addition measured after 30 mins by fluorescence assay
# T3 sequence (Q9BY41 whole entry): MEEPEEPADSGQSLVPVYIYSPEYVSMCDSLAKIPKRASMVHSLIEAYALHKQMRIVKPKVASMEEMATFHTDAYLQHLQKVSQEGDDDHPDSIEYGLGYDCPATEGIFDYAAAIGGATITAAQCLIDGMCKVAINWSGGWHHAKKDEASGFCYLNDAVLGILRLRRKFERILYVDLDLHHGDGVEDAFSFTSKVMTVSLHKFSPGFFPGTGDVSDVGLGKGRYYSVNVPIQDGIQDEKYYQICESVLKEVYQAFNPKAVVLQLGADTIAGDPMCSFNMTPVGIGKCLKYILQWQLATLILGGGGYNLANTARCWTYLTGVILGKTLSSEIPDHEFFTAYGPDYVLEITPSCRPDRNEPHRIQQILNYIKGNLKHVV
# Sequence of Histone deacetylase 1 (Q13547 whole entry): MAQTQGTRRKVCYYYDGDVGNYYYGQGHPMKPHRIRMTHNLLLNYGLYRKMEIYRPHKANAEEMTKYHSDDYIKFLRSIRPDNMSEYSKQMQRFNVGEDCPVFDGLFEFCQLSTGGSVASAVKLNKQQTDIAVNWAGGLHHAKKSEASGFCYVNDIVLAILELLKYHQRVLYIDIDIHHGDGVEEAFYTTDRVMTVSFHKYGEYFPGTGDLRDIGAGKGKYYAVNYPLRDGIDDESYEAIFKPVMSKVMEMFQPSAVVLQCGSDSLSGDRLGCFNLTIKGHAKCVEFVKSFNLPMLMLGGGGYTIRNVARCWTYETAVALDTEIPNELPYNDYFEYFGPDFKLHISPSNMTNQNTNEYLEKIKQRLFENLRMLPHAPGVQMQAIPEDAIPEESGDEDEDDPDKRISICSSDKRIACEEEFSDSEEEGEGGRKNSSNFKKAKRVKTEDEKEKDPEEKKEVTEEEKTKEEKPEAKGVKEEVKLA
compound,measurement,setting,value
COc1ccc(NC(=O)[C@H](Cc2c[nH]c3ccccc23)NC(=O)/C=C/c2ccc(C(=O)NO)cc2)cc1,IC50,Histone deacetylase,35.8 nM
Cc1cc(C)c(NC(=O)[C@H](Cc2c[nH]c3ccccc23)NC(=O)/C=C/c2ccc(C(=O)NO)cc2)c(C)c1,IC50,Histone deacetylase,22.2 nM
O=C(/C=C/c1ccc(C(=O)NO)cc1)N[C@@H](Cc1c[nH]c2ccccc12)C(=O)Nc1ccccc1,IC50,Histone deacetylase,7.6 nM
O=C(/C=C/c1ccc(C(=O)NO)cc1)N[C@@H](Cc1c[nH]c2ccccc12)C(=O)NCCc1ccccc1,IC50,Histone deacetylase,21.8 nM
CCNC(=O)[C@H](Cc1c[nH]c2ccccc12)NC(=O)/C=C/c1ccc(C(=O)NO)cc1,IC50,Histone deacetylase,112.1 nM
O=C(/C=C/c1ccc(C(=O)NO)cc1)N[C@@H](Cc1c[nH]c2ccccc12)C(=O)Nc1cccc2ccccc12,IC50,Histone deacetylase,59.5 nM
Cc1ccc(NC(=O)[C@H](Cc2c[nH]c3ccccc23)NC(=O)/C=C/c2ccc(C(=O)NO)cc2)cc1,IC50,Histone deacetylase,22.5 nM
O=C(/C=C/c1ccc(C(=O)NO)cc1)N[C@@H](Cc1c[nH]c2ccccc12)C(=O)Nc1ccc(F)cc1,IC50,Histone deacetylase,2 nM
same,IC50,U-937,630 nM
same,IC50,Jurkat,980 nM
same,IC50,[1],1320 nM
same,IC50,MOLT-4,840 nM
same,IC50,HEL,990 nM
same,IC50,HeLa,1570 nM
CC(C)CNC(=O)[C@H](Cc1c[nH]c2ccccc12)NC(=O)/C=C/c1ccc(C(=O)NO)cc1,IC50,Histone deacetylase,311.9 nM
O=C(/C=C/c1ccc(C(=O)NO)cc1)N[C@@H](Cc1c[nH]c2ccccc12)C(=O)Nc1ccc(Br)cc1,IC50,Histone deacetylase 11,176 nM
same,IC50,Histone deacetylase,2 nM
same,IC50,[2],127 nM
same,IC50,Histone deacetylase 1,45.3 nM
same,IC50,U-937,510 nM
same,IC50,Jurkat,780 nM
same,IC50,[1],620 nM
same,IC50,MOLT-4,470 nM
same,IC50,HEL,440 nM
same,IC50,HeLa,1200 nM
same,IC50,Histone deacetylase 8,354 nM
O=C(/C=C/c1ccc(C(=O)NO)cc1)N[C@@H](Cc1c[nH]c2ccccc12)C(=O)NC1CCCC1,IC50,Histone deacetylase,249.1 nM
CC(C)(C)NC(=O)[C@H](Cc1c[nH]c2ccccc12)NC(=O)/C=C/c1ccc(C(=O)NO)cc1,IC50,Histone deacetylase,165.5 nM
O=C(/C=C/c1ccc(C(=O)NO)cc1)N[C@@H](Cc1c[nH]c2ccccc12)C(=O)NCc1ccccc1,IC50,Histone deacetylase,37.3 nM
O=C(/C=C/c1ccc(C(=O)NO)cc1)N[C@@H](Cc1c[nH]c2ccccc12)C(=O)NC1CC1,IC50,Histone deacetylase,268.9 nM
O=C(CCCCCCC(=O)Nc1ccccc1)NO [VORINOSTAT],IC50,HEL,790 nM
same,IC50,HeLa,1840 nM
O=C(/C=C/c1ccc(C(=O)NO)cc1)N[C@@H](Cc1c[nH]c2ccccc12)C(=O)Nc1ccc(Cl)cc1,IC50,Histone deacetylase 11,15.8 nM
same,IC50,Histone deacetylase,5.7 nM
same,IC50,[2],12.6 nM
same,IC50,Histone deacetylase 1,54.7 nM
same,IC50,U-937,930 nM
same,IC50,Jurkat,2680 nM
same,IC50,[1],1590 nM
same,IC50,MOLT-4,680 nM
same,IC50,HEL,1150 nM
same,IC50,HeLa,1450 nM
same,IC50,Histone deacetylase 8,47.3 nM
O=C(/C=C/c1ccc(C(=O)NO)cc1)N[C@@H](Cc1c[nH]c2ccccc12)C(=O)Nc1ccccc1Cl,IC50,Histone deacetylase,57.1 nM
CCCCNC(=O)[C@H](Cc1c[nH]c2ccccc12)NC(=O)/C=C/c1ccc(C(=O)NO)cc1,IC50,Histone deacetylase,84.8 nM
O=C(/C=C/c1ccc(C(=O)NO)cc1)N[C@@H](Cc1c[nH]c2ccccc12)C(=O)Nc1ccc(I)cc1,IC50,Histone deacetylase,29.5 nM
O=C(/C=C/c1ccc(C(=O)NO)cc1)N[C@@H](Cc1c[nH]c2ccccc12)C(=O)Nc1cccc(Cl)c1,IC50,Histone deacetylase 11,76.3 nM
same,IC50,Histone deacetylase,8.1 nM
same,IC50,[2],51.6 nM
same,IC50,Histone deacetylase 1,22.9 nM
same,IC50,U-937,660 nM
same,IC50,Jurkat,400 nM
same,IC50,[1],600 nM
same,IC50,MOLT-4,670 nM
same,IC50,HEL,490 nM
same,IC50,HeLa,1660 nM
same,IC50,Histone deacetylase 8,132 nM
O=C(/C=C/c1ccc(C(=O)NO)cc1)N[C@@H](Cc1c[nH]c2ccccc12)C(=O)Nc1ccncc1,IC50,Histone deacetylase,36.9 nM
